Earlier results as cited in patent publication US20240316057A1 (priority 2021, published 2024).

Legend:
[1] = as known to the skilled person

| Compound | efficacious plasma concentration range [1] | solubility in water |
| --- | --- | --- |
| Cn1c(=O)c2c(ncn2C)n(C)c1=O [Caffeine, 1,3,7-trimethylxanthine] | 5 to 20 µM |  |
| Cn1cnc2c1c(=O)[nH]c(=O)n2C [Theobromine, 3,7-dimethylxanthine] |  | very slightly water-soluble |
